Data published in US9580437B2, “Triazolopyrimidine compounds and uses thereof” (Novartis AG, priority 2014, dated 2017).

Assays:
[1] = system: H3K27 methylation in G401 cell; test: ELISA (H3K27 methylation) assay in G401 cells; type: cell-based, human; details: read-out: (c) IC50 ELISA Qualified
Method: (§1) A 6 μL solution of 3 μM of the peptide substrate H3K27Me0 (histone H3[21-44]-biotin) in reaction buffer was added to initiate each reaction. […] ELISA (H3K27 Methylation) Assay

[2] = biological target: EED (1-441)-His protein (Homo sapiens (Human), UniProt O75530); test: EED-H3K27Me3 peptide competition binding assay by AlphaScreen; details: read-out: (a) IC50 EED Alphascreen binding Qualified
Source text: EED-H3K27Me3 peptide competition binding assay by AlphaScreen (α-screen)

[3] = biological target: wild type PRC2 (wtPRC2) complex (Homo sapiens (Human), UniProt O75530); test: EED LC-MS assay; type: biochemical; details: read-out: (b) IC50 EED LC-MS Qualified
Method: as §1

Chain of EED (1-441)-His protein (O75530 whole entry): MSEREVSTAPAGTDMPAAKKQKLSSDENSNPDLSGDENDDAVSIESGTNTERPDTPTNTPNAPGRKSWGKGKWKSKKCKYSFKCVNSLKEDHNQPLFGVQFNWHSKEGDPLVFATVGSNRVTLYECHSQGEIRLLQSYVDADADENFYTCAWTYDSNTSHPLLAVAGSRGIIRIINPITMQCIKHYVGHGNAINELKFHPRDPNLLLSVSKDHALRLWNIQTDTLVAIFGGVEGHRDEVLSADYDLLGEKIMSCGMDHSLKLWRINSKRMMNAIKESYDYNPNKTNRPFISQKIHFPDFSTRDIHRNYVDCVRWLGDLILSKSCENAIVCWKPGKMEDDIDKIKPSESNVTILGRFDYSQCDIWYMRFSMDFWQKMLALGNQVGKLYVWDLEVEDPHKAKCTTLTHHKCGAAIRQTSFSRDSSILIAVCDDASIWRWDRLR
Chain of wild type PRC2 (wtPRC2) complex (O75530 whole entry): as above
Chain of wild type PRC2 (wtPRC2) complex (Q15910 whole entry partner): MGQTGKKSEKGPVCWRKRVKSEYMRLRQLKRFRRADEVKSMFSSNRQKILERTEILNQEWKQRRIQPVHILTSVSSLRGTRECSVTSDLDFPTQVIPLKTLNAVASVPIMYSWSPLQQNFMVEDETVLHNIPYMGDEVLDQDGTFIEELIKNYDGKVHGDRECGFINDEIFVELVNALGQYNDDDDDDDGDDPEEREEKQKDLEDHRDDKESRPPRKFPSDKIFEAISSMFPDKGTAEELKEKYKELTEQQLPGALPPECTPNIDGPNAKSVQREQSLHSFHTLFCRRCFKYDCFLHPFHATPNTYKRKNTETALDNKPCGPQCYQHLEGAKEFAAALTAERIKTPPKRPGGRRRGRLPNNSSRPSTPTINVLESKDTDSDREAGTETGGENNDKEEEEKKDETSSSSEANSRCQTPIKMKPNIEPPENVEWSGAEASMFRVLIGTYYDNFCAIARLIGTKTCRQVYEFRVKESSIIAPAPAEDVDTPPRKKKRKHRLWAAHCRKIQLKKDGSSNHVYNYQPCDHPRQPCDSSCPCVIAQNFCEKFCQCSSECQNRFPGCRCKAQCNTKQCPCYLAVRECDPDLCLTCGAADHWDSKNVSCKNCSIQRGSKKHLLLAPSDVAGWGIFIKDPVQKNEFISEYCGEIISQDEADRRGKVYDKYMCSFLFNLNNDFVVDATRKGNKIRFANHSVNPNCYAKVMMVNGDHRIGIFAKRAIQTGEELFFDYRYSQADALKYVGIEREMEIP
Chain of wild type PRC2 (wtPRC2) complex (Q15022 whole entry partner): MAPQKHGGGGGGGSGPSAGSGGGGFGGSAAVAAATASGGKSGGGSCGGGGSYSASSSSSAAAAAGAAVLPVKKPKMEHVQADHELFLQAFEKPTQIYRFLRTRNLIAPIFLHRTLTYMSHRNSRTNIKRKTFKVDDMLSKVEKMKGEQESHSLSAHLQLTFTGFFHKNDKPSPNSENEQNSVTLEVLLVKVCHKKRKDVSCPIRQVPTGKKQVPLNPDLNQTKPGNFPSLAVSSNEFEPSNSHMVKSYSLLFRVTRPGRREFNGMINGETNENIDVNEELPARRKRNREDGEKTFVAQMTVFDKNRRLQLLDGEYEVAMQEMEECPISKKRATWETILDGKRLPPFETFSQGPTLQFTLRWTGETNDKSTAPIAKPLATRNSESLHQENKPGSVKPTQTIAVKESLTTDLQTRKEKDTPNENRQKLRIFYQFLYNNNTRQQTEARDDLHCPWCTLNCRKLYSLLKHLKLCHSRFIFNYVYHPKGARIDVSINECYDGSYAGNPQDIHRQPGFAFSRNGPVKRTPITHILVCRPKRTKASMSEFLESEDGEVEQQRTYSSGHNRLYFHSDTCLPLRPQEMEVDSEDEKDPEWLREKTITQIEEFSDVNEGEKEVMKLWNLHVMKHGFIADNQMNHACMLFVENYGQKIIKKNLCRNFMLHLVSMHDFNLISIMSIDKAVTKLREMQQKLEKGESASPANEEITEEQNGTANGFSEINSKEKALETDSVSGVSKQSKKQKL

Compound	IC50 [1]	IC50 [2]	IC50 [3]
Cc1ncccc1-c1cnc(NCc2c(F)ccc3c2CCO3)n2cnnc12 [Example 2, N-((5-fluoro-2,3-dihydrobenzofuran-4-yl)methyl)-8-(2-methylpyridin-3-yl)-[1,2,4]triazolo[4,3-c]pyrimidin-5-amine]	2.6 nM	–	–
Fc1ccc2c(c1CNc1ncc(-c3cnccn3)c3nncn13)CCO2 [Example 205, N-((5-fluoro-2,3-dihydrobenzofuran-4-yl)methyl)-8-(pyrazin-2-yl)-[1,2,4]triazolo[4,3-c]pyrimidin-5-amine]	–	7.3 nM	8.2 nM
Cc1nn(C)cc1-c1cnc(NCc2cccc3c2CCO3)n2cnnc12 [Example 30, N-((2,3-dihydrobenzofuran-4-yl)methyl)-8-(1,3-dimethyl-1H-pyrazol-4-yl)-[1,2,4]triazolo[4,3-c]pyrimidin-5-amine]	–	5.3 nM	24.8 nM

Further molecules by falling IC50 [2], results first:

IC50 [1]	IC50 [2]	IC50 [3]	Compound
–	28.5 nM	17.5 nM	CS(=O)(=O)Nc1ccc(-c2cnc(NCc3cccc4c3CCO4)n3cnnc23)cc1F [Example 33, N-(4-(5-(((2,3-dihydrobenzofuran-4-yl)methyl)amino)-[1,2,4]triazolo[4,3-c]pyrimidin-8-yl)-2-fluorophenyl)methanesulfonamide]
–	3.2 nM	3.9 nM	Cc1nn(C(C)C)cc1-c1cnc(NCc2c(F)ccc3c2CCO3)n2cnnc12 [Example 4, N-((5-Fluoro-2,3-dihydrobenzofuran-4-yl)methyl)-8-(1-isopropyl-3-methyl-1H-pyrazol-4-yl)-[1,2,4]triazolo[4,3-c]pyrimidin-5-amine]
